Data set [1] concerns the target T1, C-36 fibrils (Homo sapiens, UniProt P01009).
T1 construct: the 36 residue C-terminal fragment of α1-antitrypsin (C-36)
Briefly: Fibril titration with ANS (fluorescence). The settings on record: 2.5 μg aggregate material, ANS 20 to 167 μM. The data set is classed as binding. The method, then:
(§1) Fibril material (2.5 μg) was set up in 50 μL phosphate buffer in a 96 well half-area NBS plate (NUNC/Terma). Stepwise ANS titration was conducted from 20 to 167 μM with 100 sec mixing (300 rpm) before each measurement using a FLUOstar Omega plate reader (excitation at […], emission at 485 nm).

The subject of data set [2] is chymotrypsinogen aggregates. The experiment in a line: Fibril titration with ANS (fluorescence). The data set is classed as binding. The settings on record: 2.5 μg aggregate material, ANS 20 to 167 μM. On the procedure: as §1
The target in data set [3] is T2, glucagon fibrils (Homo sapiens, UniProt P01275).
T2 construct: fibrils of the peptide hormone glucagon
The experiment in a line: Fibril titration with ANS (fluorescence). The settings on record: 2.5 μg aggregate material, ANS 20 to 167 μM. The data set is classed as binding. The method, then: as §1

Data set [4] concerns the target T3, αSN fibrils (Homo sapiens, UniProt P37840). Briefly: Fibril titration with ANS (fluorescence). The data set is classed as binding. The settings on record: 2.5 μg aggregate material, ANS 20 to 167 μM. On the procedure:
as §1

Data set [5] concerns T4, Ab1 fibrils.
T4 construct: Synthetic amyloid β peptide 1–40 was purchased from Caslo Aps (Lyngby, Denmark); purchased Caslo Aps (Lyngby, Denmark); host or cells: synthetic peptide
Briefly: Fibril titration with ANS (fluorescence). The settings on record: 2.5 μg aggregate material, ANS 20 to 167 μM. The data set is classed as binding, human. On the procedure:
as §1

The subject of data set [6] is T5, Ab2 fibrils.
T5 construct: Two structurally distinct fibrils of the Aβ(1–40) peptide associated with AD
Briefly: Fibril titration with ANS (fluorescence). The data set is classed as binding, human. The following applies: 2.5 μg aggregate material, ANS 20 to 167 μM. The method, then: as §1

Another data set relates to T6, FAS4 AD aggregates.
T6 construct: a mutated version of the FAS1-4 domain of TGFBIp
The experiment in a line: Fibril titration with ANS (fluorescence). The data set is classed as binding, human. The following applies: 2.5 μg aggregate material, ANS 20 to 167 μM. On the procedure:
as §1

Data set [7] has as its system T4, Ab1 fibrils. The experiment in a line: Determination of the binding capacity (dye depletion from supernatant). Also on record: species or system human. The settings on record: 2 nmol dye (20 µM) with 10 μg fibril material, one hour. The method, then: (§2) Control samples (without fibril material) were prepared similarly. Fibrils and fibril-bound ligand were pelleted by centrifugation (17,000 g, 30 min) and the supernatant (90 μL) was transferred to a 96 well half-area plate (Corning 3881).

Data set [8] deals with T5, Ab2 fibrils. Described as above. The settings on record: 2 nmol dye (20 µM) with 10 μg fibril material, one hour. Also on record: species or system human. The method, then:
as §2

The target in data set [9] is T1, C-36 fibrils. The data set is described as above. The settings on record: 2 nmol dye (20 µM) with 10 μg fibril material, one hour. On the procedure: as §2
Data set [10] deals with T2, glucagon fibrils. The description is as above. The settings on record: 2 nmol dye (20 µM) with 10 μg fibril material, one hour. The method, then:
as §2

Data set [11] addresses T3, αSN fibrils. The data set is described as above. The following applies: 2 nmol dye (20 µM) with 10 μg fibril material, one hour. The method, then:
as §2

Data set [12] concerns the target fibrils of a short Aβ fragment. Further details: method as in PMID 23878726. The following applies: read-out: dissociation constant; cited from earlier work.
The test system of data set [13] is T4, Ab1 fibrils. The experiment in a line: Fibril incubation with plasma, quantitative MS/MS of bound proteins. The data set is classed as binding, human. The settings on record: 50:1 w/w plasma protein:fibril. The method in brief: (§3)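 Fibrils (20 μg) were incubated 1 h at room temperature with plasma (500 μg) or CSF (40 μg) protein in PBS/5 mM EDTA, then pelleted, washed in PBS and 1 M NaCl, and dissolved in 6 M GdmCl. Bound proteins were trypsin-digested for LC-MS/MS and quantified by XIC of the top three peptides, normalized to total ion intensity.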

Data set [14] concerns T5, Ab2 fibrils. Described as above. The data set is classed as binding, human. The following applies: 50:1 w/w plasma protein:fibril.
Data set [15] addresses T2, glucagon fibrils. The data set is described as above. The data set is classed as binding. The following applies: 50:1 w/w plasma protein:fibril.
The target of data set [16] is T1, C-36 fibrils. The description is as above. The following applies: 50:1 w/w plasma protein:fibril. The data set is classed as binding.
Data set [17] addresses T3, αSN fibrils. Described as above. The data set is classed as binding. The settings on record: 50:1 w/w plasma protein:fibril. The method in brief: as §3
Data set [18] has as its system T7, FAS4-AD aggregates.
T7 construct: aggregates of a mutated version of the FAS1-4 domain of TGFBIp
The data set is described as above. The data set is classed as binding, human. The settings on record: 50:1 w/w plasma protein:fibril. The method in brief: as §3

In data set [19] the test system is fibril systems (Ab1, Ab2, glucagon, αSN and C-36). The experiment in a line: Fibril incubation with plasma, quantitative MS/MS, span over the fibril systems. The data set is classed as binding, human. The method, then:
Plasma and CSF solutions were centrifuged (40,000 g, 20 min) to remove any aggregates. The protein concentration was determined using 280 nm absorbance assuming 1 Abs = 1 mg/mL. […] Control samples (without fibril material) were prepared similarly. All samples were incubated at room temperature for one hour under gentle agitation. Fibrils and fibril-bound proteins were pelleted by centrifugation at 17,000 g for 30 minutes. The supernatant (175 μL) was removed and the aggregate was re-suspended in 175 μL PBS and pelleted again before further preparation for gel analysis and spin-filter assisted digest for quantitative MS/MS.
The fibril-protein pellets were transferred to spin-filters (0.22 μm), washed twice in PBS (100 μL) and once in 1 M NaCl (100 μL). The fibrils and fibril-bound proteins were dissolved by one-hour incubation in 100 μL 6 M guanidinium chloride followed by elution from the spin-filter. […]
The micro-purified tryptic peptides were dissolved in 0.1% formic acid, injected and trapped on an in-house packed trap column (2 cm × 100 μm I.D) with RP ReproSil-Pur C18-AQ 3 μm resin (Dr. Maisch GmbH). […] Elution from the analytical column was performed with a linear gradient from 5% to 35% phase B (90% acetonitrile with 0.1% formic acid) over 20 min for protein identification and 50 min for quantitative analysis, respectively.
All samples were analysed three times, yielding nine MS/MS experiments for each fibril for both plasma and CSF. For the area-based extracted ion chromatogram (XIC) quantification, the acquisition method was set up as an information-dependent acquisition (IDA) experiment collecting up to 25 MS/MS spectra in each 1.6 sec cycle using an exclusion window of 6 sec. […]
XIC quantification was based on the average ion intensity of the three most abundant peptides for each protein. Only proteins quantified in at least four out of nine MS/MS experiments per fibril were included in the quantification. […]

Data set [20] relates to T4, Ab1 fibrils. Briefly: Fibril incubation with CSF, quantitative MS/MS of bound proteins. The data set is classed as binding, human. The following applies: 4:1 w/w CSF protein:fibril.
For data set [21], the system named is T5, Ab2 fibrils. The data set is described as above. The data set is classed as binding, human. The settings on record: 4:1 w/w CSF protein:fibril.
In data set [22] the target is T2, glucagon fibrils. Described as above. The data set is classed as binding. The following applies: 4:1 w/w CSF protein:fibril.
The target in data set [23] is T1, C-36 fibrils. Described as above. The data set is classed as binding. The following applies: 4:1 w/w CSF protein:fibril.
Data set [24] concerns the target T3, αSN fibrils. Described as above. The data set is classed as binding. The settings on record: 4:1 w/w CSF protein:fibril.
The subject of data set [25] is T7, FAS4-AD aggregates. The description is as above. The data set is classed as binding, human. Also on record: key to Identification status of CSF protein bound: FAS4-AD: *: Identified, but not quantified; —: Not identified in any of the samples. The following applies: symbol cells.

T2 sequence (P01275 53-81 limits assumed): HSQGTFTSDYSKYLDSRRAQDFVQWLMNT
T1 sequence (P01009 383-418 limits assumed): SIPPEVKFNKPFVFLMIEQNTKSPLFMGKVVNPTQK

For `O=S(=O)(O)c1cccc2cccc(Nc3ccccc3)c12` [ANS, 8-anilinonaphthalene sulfonate], the ANS fluorescence signal result on C-36 fibrils [1] is listed as “little or no signal at all”; in data set [2], “intermediate signal intensities”; at glucagon fibrils [3], “little or no signal at all”; at αSN fibrils [4], “significant fluorescence enhancements”; in the data set with Ab1 fibrils [5] it was “little or no signal at all”; with Ab2 fibrils [6], “little or no signal at all”. In addition, the ANS fluorescence signal result in the data set with FAS4 AD aggregates is “intermediate signal intensities”.

`O=S(=O)(O)c1cc(S(=O)(=O)O)c2c(/N=N/c3ccccc3)c(O)ccc2c1` [Orange-G]: the “Ligand bound (binding capacity)” value in the data set on Ab1 fibrils [7] is on record as 7 nmol/mg fibril; with Ab2 fibrils [8] it was 4 nmol/mg fibril; on C-36 fibrils [9], 28 nmol/mg fibril; on glucagon fibrils [10] it was 6 nmol/mg fibril; at αSN fibrils [11] it was 6 nmol/mg fibril. Also, in [12], the Kd was about 50 µM.

Regarding “Apolipoprotein A-I: plasma/CSF protein bound to fibrils”, in the data set with Ab1 fibrils [13], the “Relative composition of plasma proteins bound: Ab1” value is 8.8 ± 0.9 % of total protein. Further, the “Relative composition of plasma proteins bound: Ab2” value in the data set on Ab2 fibrils [14] was 14.9 ± 7.0 % of total protein. In addition, in the data set with glucagon fibrils [15], the “Relative composition of plasma proteins bound: Glucagon” value is listed as 11.7 ± 1.4 % of total protein. For the same molecule, the “Relative composition of plasma proteins bound: C-36” value with C-36 fibrils [16] is 13.5 ± 0.5 % of total protein. Also, in the data set with αSN fibrils [17], the “Relative composition of plasma proteins bound: αSN” value is on record as 14.7 ± 3.0 % of total protein. Besides, the “Relative composition of plasma proteins bound: FAS4-AD” value in the data set on FAS4-AD aggregates [18] was 15.7 ± 4.6 % of total protein. Besides, the “contribution to the fibril interactomes” value in data set [19] is given as 8.8–14.9%. Also, in the data set on Ab1 fibrils [20], the “Relative composition of CSF proteins bound: Ab1” value is listed as 3.9 ± 0.4 % of total protein. Further, the “Relative composition of CSF proteins bound: Ab2” value in the data set on Ab2 fibrils [21] is 2.9 ± 0.6 % of total protein. Further, the “Relative composition of CSF proteins bound: Glucagon” value with glucagon fibrils [22] is reported as 2.6 ± 0.8 % of total protein. Moreover, the “Relative composition of CSF proteins bound: C-36” value with C-36 fibrils [23] is on record as 5.0 ± 1.6 % of total protein. Moreover, the “Relative composition of CSF proteins bound: αSN” value in the data set with αSN fibrils [24] is reported as 2.7 ± 1.0 % of total protein. Besides, the “Identification status of CSF protein bound: FAS4-AD” value in the data set on FAS4-AD aggregates [25] was “*”.

These data come from paper PMC6405930, “Conservation of the Amyloid Interactome Across Diverse Fibrillar Structures” (Scientific Reports, 2019).
